Results as given in patent US9353081B2, “Bicyclic dihydroquinoline-2-one derivatives” (Hoffmann-La Roche Inc., priority 2011, dated 2016).

Columns and labels:
human CYP11B1 = human CYP11B1 (Homo sapiens (Human), UniProt P15538); assay: G-402 cellular enzyme assay, human CYP11B1 (cortisol release, HTRF); format: cell-based; conditions: G-402 cells expressing human CYP11B1; 1 μM Deoxycortisol
Text: (§1) Specifically we developed stable G-402 cells expressing ectopically human CYP11B1, human CYP11B2, human CYP11A1, cynomolgus CYP11B1 or cynomolgus CYP11B2 enzyme activity.
(§2) The expression plasmids contains the ORF for either human/cyno CYP11B1 or CYP11B2 under the control of a suitable promoter (CMV-promoter) and a suitable resistance marker (neomycin). Using standard techniques the expression plasmid is transfected into G-402 cells and these cells are then selected for expressing the given resistance markers. Individual cell-clones are then selected and assessed for displaying the desired enzymatic activity using 11-Deoxycorticosterone (Cyp11B2) or 11-Deoxycortisol (Cyp11B1) as a substrate.
(§3) For assaying enzymatic activity, cells were plated onto 96 well plates and incubated for 16 h. An aliquot of the supernatant is then transferred and analyzed for the concentration of the expected product (Aldosterone for CYP11B2; Cortisol for CYP11B1). The concentrations of these steroids can be determined using HTRF assays from CisBio analyzing either Aldosterone or Cortisol.
(§4) Inhibition of the release of produced steroids can be used as a measure of the respective enzyme inhibition by test compounds added during the cellular enzyme assay. The dose dependent inhibition of enzymatic activity by a compound is calculated by means of plotting added inhibitor concentrations x-axes) vs. measured steroid/product level (y-axes). The inhibition is then calculated by fitting the following 4-parameter sigmoidal function (Morgan-Mercer-Flodin (MMF) model) to the raw data points using the least squares method:
(§5) [formula] wherein, A is the maximum y value, B is the EC50 factor determined using XLFit, C is the minimum y value and D is the slope value.
(§6) EC50 values for compounds claimed herein were tested with the G402-based assay system described. Cyp11B2 enzyme activity was tested in presence of 1 μM Deoxycorticosterone and variable amounts of inhibitors; Cyp11B1 enzyme activity was tested in presence of 1 μM Deoxycortisol and variable amounts of inhibitors.

human CYP11B2 = human CYP11B2 (Homo sapiens (Human), UniProt P19099); assay: G-402 cellular enzyme assay, human CYP11B2 (aldosterone release, HTRF); format: cell-based; conditions: G-402 cells expressing human CYP11B2; 1 μM Deoxycorticosterone
Text: as §1, §2, §3, §4, §5, §6

Sequence of human CYP11B1 (P15538 25-503): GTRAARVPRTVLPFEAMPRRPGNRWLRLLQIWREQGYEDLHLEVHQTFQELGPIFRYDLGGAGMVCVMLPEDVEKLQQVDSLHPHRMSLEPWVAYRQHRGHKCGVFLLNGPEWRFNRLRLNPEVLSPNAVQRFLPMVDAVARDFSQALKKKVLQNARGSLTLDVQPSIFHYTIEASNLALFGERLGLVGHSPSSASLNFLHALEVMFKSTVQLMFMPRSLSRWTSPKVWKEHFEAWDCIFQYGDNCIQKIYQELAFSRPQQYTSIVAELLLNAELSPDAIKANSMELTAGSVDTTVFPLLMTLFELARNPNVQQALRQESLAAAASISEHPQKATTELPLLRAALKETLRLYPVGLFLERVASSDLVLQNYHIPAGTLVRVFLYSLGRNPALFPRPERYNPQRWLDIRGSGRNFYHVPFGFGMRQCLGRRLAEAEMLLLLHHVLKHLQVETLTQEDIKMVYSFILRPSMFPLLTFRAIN
Sequence of human CYP11B2 (P19099 25-503): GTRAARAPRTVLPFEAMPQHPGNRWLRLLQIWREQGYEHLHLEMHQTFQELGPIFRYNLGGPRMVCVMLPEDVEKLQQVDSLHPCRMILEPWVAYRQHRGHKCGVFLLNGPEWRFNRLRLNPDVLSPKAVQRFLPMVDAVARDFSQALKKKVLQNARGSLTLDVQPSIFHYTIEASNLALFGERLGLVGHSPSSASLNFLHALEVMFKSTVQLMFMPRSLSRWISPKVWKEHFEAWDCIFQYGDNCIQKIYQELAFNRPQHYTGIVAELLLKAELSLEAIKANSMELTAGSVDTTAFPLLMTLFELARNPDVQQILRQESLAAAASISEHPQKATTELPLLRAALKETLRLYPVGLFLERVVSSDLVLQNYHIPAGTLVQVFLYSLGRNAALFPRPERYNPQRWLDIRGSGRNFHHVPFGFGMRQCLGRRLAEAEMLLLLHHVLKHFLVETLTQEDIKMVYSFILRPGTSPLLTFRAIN

Row | SMILES | EC50 (human CYP11B1) [µM] | EC50 (human CYP11B2) [µM]
1 | CCC(=O)N[C@@H]1c2cncc(-c3cc4c(cc3F)N(C)C(=O)CC4)c2CC[C@@H]1F (single isomer, unassigned) [Example 57, (−)-N-[(7S,8R or 7R,8S)-7-Fluoro-4-(7-fluoro-1-methyl-2-oxo-1,2,3,4-tetrahydro-quinolin-6-yl)-5,6,7,8-tetrahydro-isoquinolin-8-yl]-propionamide] | 20.3 | 0.884
2 | CN1C(=O)CCc2cc(-c3cncc4c3CCCC4=O)ccc21 [Example 70, 1-Methyl-6-(8-oxo-5,6,7,8-tetrahydro-isoquinolin-4-yl)-3,4-dihydro-1H-quinolin-2-one] | 7.17 | 0.0157
3 | CCC(=O)N[C@H]1c2cncc(-c3cc4c(cc3F)N(C)C(=O)CC4)c2CC[C@H]1F (single isomer, unassigned) [Example 55, (+)-N-[(7R,8S or 7S,8R)-7-Fluoro-4-(7-fluoro-1-methyl-2-oxo-1,2,3,4-tetrahydro-quinolin-6-yl)-5,6,7,8-tetrahydro-isoquinolin-8-yl]-propionamide] | 2.76 | 0.158
4 | C[C@H](O)C(=O)NC1CCCc2c(-c3ccc4c(c3)CCC(=O)N4C)cncc21 (single isomer, unassigned; (+)) [Example 21, (+)-(2S)-2-hydroxy-N-((4R or 4S)-4-(1-methyl-2-oxo-1,2,3,4-tetrahydroquinolin-6-yl)-5,6,7,8-tetrahydroisoquinolin-8-yl)propanamide] | 0.598 | 0.028
5 | CCS(=O)(=O)NC1CCc2c(-c3cc4c(cc3F)N(C)C(=O)CC4)cncc21 (racemic) [Example 25, (rac)-N-(4-(7-Fluoro-1-methyl-2-oxo-1,2,3,4-tetrahydroquinolin-6-yl)-6,7-dihydro-5H-cyclopenta[c]pyridin-7-yl)ethanesulfonamide] | 2.98 | 0.0334
6 | CCC(=O)N[C@@H]1CCCc2c(-c3ccc4c(c3)CCC(=O)N4C)cncc21 [Example 3-1, (+)-(R)—N-(4-(1-Methyl-2-oxo-1,2,3,4-tetrahydroquinolin-6-yl)-5,6,7,8-tetrahydroisoquinolin-8-yl)propionamide] | 0.98 | 0.014
7 | CCS(=O)(=O)NC1CCCc2c(-c3cc(F)c4c(c3)CCC(=O)N4C)cncc21 (racemic) [Example 36, (rac)-Ethanesulfonic acid [4-(8-fluoro-1-methyl-2-oxo-1,2,3,4-tetrahydro-quinolin-6-yl)-5,6,7,8-tetrahydro-isoquinolin-8-yl]-amide] | 20.7 | 0.239
8 | CCC(=O)N[C@@H]1c2cncc(-c3cc4c(cc3F)N(C)C(=O)CC4)c2CC[C@@H]1C (single isomer, unassigned) [Example 43, (−)-N-[(7S,8S or 7R,8R)-4-(7-Fluoro-1-methyl-2-oxo-1,2,3,4-tetrahydro-quinolin-6-yl)-7-methyl-5,6,7,8-tetrahydro-isoquinolin-8-yl]-propionamide] | 32 | 0.452
9 | CCC(=O)NC1CCc2c(-c3cc4c(cc3F)N(C)C(=O)CC4)cncc21 (racemic) [Example 22, (rac)-N-(4-(7-Fluoro-1-methyl-2-oxo-1,2,3,4-tetrahydroquinolin-6-yl)-6,7-dihydro-5H-cyclopenta[c]pyridin-7-yl)propionamide] | 1.2 | 0.0102
10 | CCC(=O)N[C@@H]1c2cncc(-c3cc4c(cc3F)N(C)C(=O)CC4)c2CC[C@H]1F (single isomer, unassigned) [Example 56, (−)-N-[(7R,8R or 7S,8S)-7-Fluoro-4-(7-fluoro-1-methyl-2-oxo-1,2,3,4-tetrahydro-quinolin-6-yl)-5,6,7,8-tetrahydro-isoquinolin-8-yl]-propionamide] | 14.9 | 2.78
11 | CCC(=O)NC1CCc2c(-c3cc4c(cc3F)N(C)C(=O)CC4)cncc21 (single isomer, unassigned; (+)) [Example 24, (+)-(R or S)—N-(4-(7-Fluoro-1-methyl-2-oxo-1,2,3,4-tetrahydroquinolin-6-yl)-6,7-dihydro-5H-cyclopenta[c]pyridin-7-yl)propionamide] | 0.466 | 0.0038
12 | CCC(=O)N[C@H]1c2cncc(-c3cc4c(cc3F)N(C)C(=O)CC4)c2CC[C@@H]1F (single isomer, unassigned) [Example 54, (+)-N-[(7S,8S or 7R,8R)-7-Fluoro-4-(7-fluoro-1-methyl-2-oxo-1,2,3,4-tetrahydro-quinolin-6-yl)-5,6,7,8-tetrahydro-isoquinolin-8-yl]-propionamide] | 2.39 | 0.0388
13 | CCC(=O)NC1CCCc2c(-c3cc4c(cc3F)N(C)C(=O)CC4)cncc21 (single isomer, unassigned; (-)) [Example 29, (−)-(S or R)—N-[4-(7-Fluoro-1-methyl-2-oxo-1,2,3,4-tetrahydro-quinolin-6-yl)-5,6,7,8-tetrahydro-isoquinolin-8-yl]-propionamide] | 42.6 | 1.79
14 | C[C@@H](O)C(=O)NC1CCCc2c(-c3ccc4c(c3)CCC(=O)N4C)cncc21 (single isomer, unassigned; (+)) [Example 18, (+)-(2R)-2-Hydroxy-N-((4R or 4S)-4-(1-methyl-2-oxo-1,2,3,4-tetrahydroquinolin-6-yl)-5,6,7,8-tetrahydroisoquinolin-8-yl)propanamide] | 1.49 | 0.0279
15 | CCS(=O)(=O)NC1CCCc2c(-c3cc(Cl)c4c(c3)CCC(=O)N4C)cncc21 (single isomer, unassigned; (-)) [Example 39, (−)-Ethanesulfonic acid [(S or R)-4-(8-chloro-1-methyl-2-oxo-1,2,3,4-tetrahydro-quinolin-6-yl)-5,6,7,8-tetrahydro-isoquinolin-8-yl]-amide] |  | 0.13
16 | C[C@H](O)C(=O)NC1CCCc2c(-c3ccc4c(c3)CCC(=O)N4C)cncc21 (single isomer, unassigned; (-)) [Example 20, (−)-(2S)-2-hydroxy-N-((4S or 4R)-4-(1-methyl-2-oxo-1,2,3,4-tetrahydroquinolin-6-yl)-5,6,7,8-tetrahydroisoquinolin-8-yl)propanamide] | 25.5 | 0.823
17 | CCC(=O)N[C@@H]1c2cncc(-c3ccc4c(c3)CCC(=O)N4C)c2CC[C@H]1F (single isomer, unassigned) [Example 50, (−)-N-[(7R,8R or 7S,8S)-7-Fluoro-4-(1-methyl-2-oxo-1,2,3,4-tetrahydro-quinolin-6-yl)-5,6,7,8-tetrahydro-isoquinolin-8-yl]-propionamide] |  | 4.32
18 | CCC(=O)NC1CCc2c(-c3cc(Cl)c4c(c3)CCC(=O)N4C)cncc21 (single isomer, unassigned; (-)) [Example 59, (−)-(S or R)—N-(4-(8-Chloro-1-methyl-2-oxo-1,2,3,4-tetrahydroquinolin-6-yl)-6,7-dihydro-5H-cyclopenta[c]pyridin-7-yl)propionamide] |  | 3.29
19 | CCC(=O)NC1CCc2c(-c3cc4c(cc3F)N(C)C(=O)CC4)cncc21 (single isomer, unassigned; (-)) [Example 23, (−)-(S or R)—N-(4-(7-Fluoro-1-methyl-2-oxo-1,2,3,4-tetrahydroquinolin-6-yl)-6,7-dihydro-5H-cyclopenta[c]pyridin-7-yl)propionamide] |  | 1.38
20 | CCC(=O)NC1CCCc2c(-c3cc4c(cc3Cl)N(C)C(=O)CC4)cncc21 (single isomer, unassigned) [Example 35, N—[(R or S)-4-(7-Chloro-1-methyl-2-oxo-1,2,3,4-tetrahydro-quinolin-6-yl)-5,6,7,8-tetrahydro-isoquinolin-8-yl]-propionamide] |  | 1.77
21 | CCC(=O)N[C@@H]1c2cncc(-c3ccc4c(c3)CCC(=O)N4C)c2CC[C@H]1C (single isomer, unassigned) [Example 47, (−)-N-[(7R,8S or 7S,8R)-7-Methyl-4-(1-methyl-2-oxo-1,2,3,4-tetrahydro-quinolin-6-yl)-5,6,7,8-tetrahydro-isoquinolin-8-yl]-propionamide] |  | 1.82
22 | CCS(=O)(=O)NC1CCc2c(-c3cc4c(cc3F)N(C)C(=O)CC4)cncc21 (single isomer, unassigned; (-)) [Example 26, (−)-(S or R)—N-(4-(7-Fluoro-1-methyl-2-oxo-1,2,3,4-tetrahydroquinolin-6-yl)-6,7-dihydro-5H-cyclopenta[c]pyridin-7-yl)ethanesulfonamide] |  | 4.55
23 | CCC(=O)NC1CCCc2c(-c3cc(Cl)c4c(c3)CCC(=O)N4C)cncc21 (single isomer, unassigned; (-)) [Example 40, (−)-N—[(S or R)-4-(8-Chloro-1-methyl-2-oxo-1,2,3,4-tetrahydro-quinolin-6-yl)-5,6,7,8-tetrahydro-isoquinolin-8-yl]-propionamide] |  | 0.126
